# Peptide text beside a SMILES is read from it. * marks the point of attachment. Cbz = O=C(OCc1ccccc1)*
# Columns and labels:
# [1] = tested on: Mcl-1; test: Mcl-1 protein level / degradation in mitotic arrest (western blot of synchronized cells); type: cell-based, human
# Description: (§1) The viability of cancer cell lines, and MEFs in which genes encoding IAPs had been knocked out, was analysed by using the CellTiter-Glo Luminescent Cell Viability Assay® (Promega). Cells were treated in triplicate with anti-tubulin agents for the indicated times, using dimethylsulphoxide treatment as a control. The viability of BCL2-family-member-null MEFs was analysed by propidium iodide staining, as described previously (Chen, L. et al. (2005) Molecular cell 17:393-403), after treatment with anti-tubulin agents for 48 h. Cell synchronization was achieved by culture either in serum-free medium for 12-16 h or in medium containing 2 mM thymidine for 18-24 h, release from the thymidine block with three washes in PBS, followed by culture for 8-12 h in complete growth media (compositions are described in the Supplementary Information). Cells then underwent a second thymidine block for 16-20 h, three further washes in PBS and release into complete medium containing the indicated reagents. To block MCL1 degradation, […] MG132 was added as cells entered mitotic arrest, as assessed by visual inspection. See the Examples for full methods.
# Western blotting was performed essentially as described (Wertz, I. E. et al. (2004) Science (New York, N.Y 303:1371-1374). In brief, cells were lysed in corrected FLAG elution buffer (CFEB) (19.17 mM Tris (pH 7.5), 916.7 μM MgCl2, 92.5 mM NaCl and 0.1% Triton X-100) with protease and phosphatase inhibitors; in some cases 6 M urea was added. Cleared lysates were quantitated and equal amounts of proteins were reduced, alkylated, separated by SDS-PAGE, and transferred onto PVDF membranes (Invitrogen) following standard procedures. Western blotting was performed as recommended by the respective antibody manufacturers. Patient tissue and xenograft samples were lysed in 5× volume of CFEB with protease inhibitors using Fast prep 24 (MP Biologicals). Tissue lysates were cleared and 40 μg total protein was prepared for western blotting analysis as described above. Immunoprecipitations were performed with the indicated antibodies as described (Willis, S. N. et al. (2007) Science (New York, N.Y 315:856-859; Wertz, I. E. et al. (2004) Science (New York, N.Y 303:1371-1374). PP2A activity was performed on PP2A or Mcl-1 immunoprecipitates as recommended by the manufacturer (Upstate)
# [2] = tested on: murine embryonic fibroblasts (MEFs); test: Viability of BCL2-family-member-null MEFs by propidium iodide staining after anti-tubulin agents; type: cell-based; conditions: treated 48 hours
# Description: as §1
# [3] = tested on: Mcl-1 S159; test: In vitro kinase reactions: percent phosphorylation of full-length recombinant Mcl-1 at S159 alone; type: biochemical, human; conditions: % phos on S159 alone; for Percent phosphorylation S159, AVE: average; for Percent phosphorylation S159, INJ1: sample injection 1; for Percent phosphorylation S159, INJ2: sample injection 2
# Description: (§2) To determine the suitability of residues in Mcl-1 as kinase substrates, 10 μM of Mcl-1 was incubated with selected kinase at enzyme concentrations between 25 and 100 nM. For these reactions the Mcl-1 was dialyzed into 20 mM Phosphate, 50 mM Tris pH 7.5 150 mM NaCl, 5 mM DTT and 0.5% CHAPS. The protein solution was further supplemented with MgCl2 to 10 mM and ATP to 1 mM prior to addition of kinase. Purified recombinant kinases were purchased from Invitrogen Co. (Carlsbad, Calif.).
# (§3) 10 μl of each of the Mcl-1 kinase reactions (100 pmol) were loaded onto a 4-12% Bis-Tris gel for separation by SDS-PAGE after reduction. Mcl-1 bands were excised from the gel, dehydrated (50% acetonitrile in 50 mM ammonium bicarbonate then 100% acetonitrile washes), and incubated with 0.2 μg trypsin overnight at 37° C.
# Samples were injected in duplicate via autosampler onto a nanoAcquity® UPLC (Waters, Milford, Mass.) and analyzed on-line via nanospray ionization into an LTQ-Orbitrap® mass spectrometer at a concentration of 300 fmol synthetic peptide mix per injection. Areas were integrated for the isotopic and kinase phosphorylated peptides, and compared to their non-phosphorylated peptide counterparts to obtain percent phosphorylation values. For phosphorylation analysis of T92, no synthetic peptide was available so peak areas of the phosphorylated peptide covering residues 76-95 was divided by the total occurrence of peptide 76-95 in both phosphorylated and non-phosphorylated forms.
# [4] = tested on: Mcl-1 S121; test: In vitro kinase reactions: percent phosphorylation of full-length recombinant Mcl-1 at S121; type: biochemical, human; conditions: for Percent phosphorylation S121, AVE: average of INJ1 and INJ2; for Percent phosphorylation S121, INJ1: sample injection 1; for Percent phosphorylation S121, INJ2: sample injection 2
# Description: as §2, §3
# (§4) Samples were injected in duplicate via autosampler onto a nanoAcquity® UPLC (Waters, Milford, Mass.) and analyzed on-line via nanospray ionization into an LTQ-Orbitrap® mass spectrometer at a concentration of 300 fmol synthetic peptide mix per injection. Areas were integrated for the isotopic and kinase phosphorylated peptides, and compared to their non-phosphorylated peptide counterparts to obtain percent phosphorylation values.
# [5] = tested on: Mcl-1 S159/T163; test: In vitro kinase reactions: percent phosphorylation of full-length recombinant Mcl-1 at S159+T163; type: biochemical, human; conditions: for Percent phosphorylation S159/T163, AVE: average; for Percent phosphorylation S159/T163, INJ1: sample injection 1; for Percent phosphorylation S159/T163, INJ2: sample injection 2
# Description: as §2, §3, §4
# [6] = tested on: Mcl-1 T163; test: In vitro kinase reactions: percent phosphorylation of full-length recombinant Mcl-1 at T163; type: biochemical, human; conditions: single kinase reactions; for Percent phosphorylation T163, AVE: average of INJ1 and INJ2; for Percent phosphorylation T163, INJ1: sample injection 1; for Percent phosphorylation T163, INJ2: sample injection 2
# Description: as §2, §3, §4
# [7] = tested on: Mcl-1 T92; test: In vitro kinase reactions: percent phosphorylation of full-length recombinant Mcl-1 at T92; type: biochemical, human; conditions: single kinase reactions, peak areas of 0 and 1P, triple charged state; for Percent phosphorylation T92, AVE: average; for Percent phosphorylation T92, INJ1: sample injection 1; for Percent phosphorylation T92, INJ2: sample injection 2
# Description: as §2, §3, §4
# [8] = % phos on S159+T163, CDK1 + kinase panel reactions
# [9] = % phos on S159+T163, single kinase reactions
Molecule,"Percent phosphorylation S121, AVE ([4]; CDK1 + kinase panel reactions)","Percent phosphorylation S121, INJ1 ([4]; CDK1 + kinase panel reactions)","Percent phosphorylation S121, INJ2 ([4]; CDK1 + kinase panel reactions)","Percent phosphorylation S121, AVE ([4]; single kinase reactions)","Percent phosphorylation S121, INJ1 ([4]; single kinase reactions)","Percent phosphorylation S121, INJ2 ([4]; single kinase reactions)","Percent phosphorylation S159/T163, AVE [5, 8]","Percent phosphorylation S159/T163, INJ1 [5, 8]","Percent phosphorylation S159/T163, INJ2 [5, 8]","Percent phosphorylation S159/T163, AVE [5, 9]","Percent phosphorylation S159/T163, INJ1 [5, 9]","Percent phosphorylation S159/T163, INJ2 [5, 9]","Percent phosphorylation T163, AVE [6]","Percent phosphorylation T163, INJ1 [6]","Percent phosphorylation T163, INJ2 [6]","Percent phosphorylation T92, AVE [7]","Percent phosphorylation T92, INJ1 [7]","Percent phosphorylation T92, INJ2 [7]",also measured
Nc1[nH]nc2nnc(-c3c(-c4ccccc4)nn4ccccc34)cc12 [FR180204],,,,,,,,,,,,,,,,,,,"Mcl-1 degradation in mitotic arrest ([1]; HeLa released into paclitaxel, CGP74514A 2 μM, FR180204 2 μM, SP600125 25 μM, SB203580 2 μM added on entry into mitotic arrest): but not ERK, attenuate Mcl-1 degradation"
CC(C)C[C@@H](C=O)NC(=O)[C@H](CC(C)C)NC(=O)[C@H](CC(C)C)NC(=O)OCc1ccccc1 [MG132] (Cbz-Leu-Leu-Leu-aldehyde),,,,,,,,,,,,,,,,,,,"Mcl-1 degradation in mitotic arrest ([1]; HeLa, HCT116 cells, MG132 added as cells entered mitotic arrest): blocked Mcl-1 degradation"
COC(=O)Nc1nc2ccc(C(=O)c3cccs3)cc2[nH]1 [nocodazole],,,,,,,,,,,,,,,,,,,killing (cell viability) ([2]; BAX−/−/BAK−/− MEFs): resistant; killing (cell viability) ([2]; wild-type MEFs): significantly more sensitive; Mcl-1 protein level in mitotic arrest ([1]; synchronized cells (HeLa) released into the agent): declined markedly
CSNK2: purified recombinant kinase purchased from Invitrogen,21.48%,20.17%,22.78%,10.28%,10.20%,10.36%,7.70%,8.30%,7.09%,3.80%,5.61%,1.99%,0.00%,0.00%,0.00%,0.10%,0.09%,0.10%,"Percent phosphorylation S159, AVE ([3]; CDK1 + kinase panel reactions): 17.13%; Percent phosphorylation S159, INJ1 ([3]; CDK1 + kinase panel reactions): 16.35%; Percent phosphorylation S159, INJ2 ([3]; CDK1 + kinase panel reactions): 17.90%; Percent phosphorylation S159, AVE ([3]; single kinase reactions): 39.13%; Percent phosphorylation S159, INJ1 ([3]; single kinase reactions): 40.30%; Percent phosphorylation S159, INJ2 ([3]; single kinase reactions): 37.95%"
MAPK9: purified recombinant kinase purchased from Invitrogen,11.82%,11.75%,11.89%,6.02%,6.46%,5.57%,0.61%,0.73%,0.49%,4.82%,5.41%,4.22%,48.52%,48.92%,48.11%,2.02%,2.30%,1.74%,
MAPK14: purified recombinant kinase purchased from Invitrogen,20.58%,21.26%,19.90%,5.26%,7.22%,3.29%,2.14%,1.84%,2.43%,4.35%,1.12%,7.57%,76.20%,79.44%,72.96%,8.94%,9.67%,8.20%,

# — patent publication US20160136295A1, “BIOMARKERS FOR TREATMENT WITH ANTI-TUBULIN CHEMOTHERAPEUTIC COMPOUNDS” (GENENTECH, INC., priority 2012, published 2016)
